In US8816095B2, “Na channels, disease, and related assays and compositions” (Georgetown University, priority 2008, dated 2014):

Assays:
human prostate tissue = experiment: Staining of human prostate paraffin embedded tissue slices; settings: 100 μM
Experimental: The binding and localization of compound 26 in prostate and prostate cancer tissue was studied. Human prostate paraffin embedded tissue slices were stained with 100 μM of compound 26 and dansyl amine.

site 2 of the VGSC = experiment: [3H]-BTX-B displacement assay at site 2; format: binding, rat; settings: for % [3H]-BTX Inhibition (40 μM) / % [3H]-BTX Displacement (40 μm): rat brain synaptoneurosomes; for % [3H]-BTX Inhibition (40 μM): Table 9; for % [3H]-BTX Displacement (40 μm): Table 13
human Nav1.2 = biological target: T1, human Nav1.2 (Homo sapiens, UniProt Q99250); experiment: hNav1.2 functional block, whole-cell patch clamp; format: cell-based
T1 construct: host or cells: HEK
T1 sequence (Q99250 whole entry): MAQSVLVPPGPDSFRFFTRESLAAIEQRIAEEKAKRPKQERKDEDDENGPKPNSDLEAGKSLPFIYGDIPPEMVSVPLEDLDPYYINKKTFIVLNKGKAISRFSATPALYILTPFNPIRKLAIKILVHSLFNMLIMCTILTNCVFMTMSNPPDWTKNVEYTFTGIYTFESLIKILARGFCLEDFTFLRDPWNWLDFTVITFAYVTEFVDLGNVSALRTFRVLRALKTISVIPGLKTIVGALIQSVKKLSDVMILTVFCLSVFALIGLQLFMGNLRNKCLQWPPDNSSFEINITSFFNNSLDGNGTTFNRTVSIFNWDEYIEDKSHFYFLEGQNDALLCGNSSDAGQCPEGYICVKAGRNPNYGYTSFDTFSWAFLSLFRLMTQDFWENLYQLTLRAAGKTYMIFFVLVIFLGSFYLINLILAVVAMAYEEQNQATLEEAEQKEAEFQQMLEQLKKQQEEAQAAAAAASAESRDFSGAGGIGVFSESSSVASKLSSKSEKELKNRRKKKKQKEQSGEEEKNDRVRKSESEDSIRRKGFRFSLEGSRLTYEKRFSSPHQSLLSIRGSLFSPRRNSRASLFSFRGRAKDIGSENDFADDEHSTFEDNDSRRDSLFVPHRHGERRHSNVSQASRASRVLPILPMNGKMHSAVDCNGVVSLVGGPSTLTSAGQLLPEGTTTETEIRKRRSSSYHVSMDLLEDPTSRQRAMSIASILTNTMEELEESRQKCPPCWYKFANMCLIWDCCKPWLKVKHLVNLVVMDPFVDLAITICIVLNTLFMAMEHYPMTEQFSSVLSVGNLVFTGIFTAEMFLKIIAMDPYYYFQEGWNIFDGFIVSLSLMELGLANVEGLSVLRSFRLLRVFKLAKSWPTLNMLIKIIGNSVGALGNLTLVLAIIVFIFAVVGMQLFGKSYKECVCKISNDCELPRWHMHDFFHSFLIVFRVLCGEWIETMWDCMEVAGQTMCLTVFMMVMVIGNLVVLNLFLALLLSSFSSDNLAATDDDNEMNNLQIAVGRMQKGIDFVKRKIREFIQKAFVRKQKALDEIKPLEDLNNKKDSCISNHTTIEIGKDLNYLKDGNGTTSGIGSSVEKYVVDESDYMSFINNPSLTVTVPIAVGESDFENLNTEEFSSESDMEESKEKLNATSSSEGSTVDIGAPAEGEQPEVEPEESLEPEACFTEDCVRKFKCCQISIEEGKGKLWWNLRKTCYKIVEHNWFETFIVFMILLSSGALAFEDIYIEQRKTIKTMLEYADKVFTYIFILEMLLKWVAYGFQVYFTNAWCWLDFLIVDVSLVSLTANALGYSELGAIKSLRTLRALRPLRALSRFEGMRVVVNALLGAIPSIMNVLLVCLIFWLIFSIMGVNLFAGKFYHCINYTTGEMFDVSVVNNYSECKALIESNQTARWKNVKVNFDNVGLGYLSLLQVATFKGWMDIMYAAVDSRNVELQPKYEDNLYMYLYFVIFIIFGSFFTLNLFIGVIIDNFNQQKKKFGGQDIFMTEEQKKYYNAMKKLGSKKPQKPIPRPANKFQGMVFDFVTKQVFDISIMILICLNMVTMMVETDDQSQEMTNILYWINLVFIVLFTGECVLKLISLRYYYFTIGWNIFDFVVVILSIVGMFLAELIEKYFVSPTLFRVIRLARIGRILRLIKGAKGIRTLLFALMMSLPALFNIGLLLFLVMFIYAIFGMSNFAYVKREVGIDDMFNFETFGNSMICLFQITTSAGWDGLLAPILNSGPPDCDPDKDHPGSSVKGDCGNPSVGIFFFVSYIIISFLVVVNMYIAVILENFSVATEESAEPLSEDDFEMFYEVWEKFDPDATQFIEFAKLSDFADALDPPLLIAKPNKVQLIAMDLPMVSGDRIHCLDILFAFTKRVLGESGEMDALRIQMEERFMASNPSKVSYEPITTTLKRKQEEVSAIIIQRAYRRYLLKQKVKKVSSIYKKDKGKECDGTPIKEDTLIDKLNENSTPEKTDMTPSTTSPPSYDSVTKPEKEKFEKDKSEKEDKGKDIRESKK
Experimental: Of the 20 analogs tested, six had [^3H]-BTX displacement characteristics much greater then that of phenyloin (Table 7), see Schemes 5, 6, 7 and 8 for the chemical synthesis and structure of the tested compounds. Compound 26, having the greatest [^3H]-BTX displacement at 86% ([…]), was further tested for VGSC functional blocking ability in HEK cells stably expressing Nav1.2 (Table 8).
In addition the functional blocking ability of 9 was tested after site two affinities was confirmed. The potential reason for this increased blocking ability stems from the dansyl addition in a hydrophobically receptive region of the binding site in the VGSC (Anderson, J. D., et al. Mol. Cancer. Ther. 2003, 2, 1149-1154; Lenkowski, P et al. Neuropharmacology, 2007, 52, 1044-1054). This enhanced potency could be due to the dansyl substituent interacting with L1465 and 11469, located in S6 of domain III in the binding site, which are believed to be the source of hydrophobic receptivity 17. The ability to inhibit VGSC currents is an important property and represents functional blocking. The ability of CDPNS to inhibit sodium channel currents was assessed at 10 and 100 μM against human Nav1.2 by patch clamp assay (FIG. 10).
Human embryonic kidney cells (HEK) cells stably expressing human Nav1.2 were a kind gift from Dr. H. A. Hartmann (University of Baltimore, Md., USA) and were grown in DMEM/F12 media (Invitrogen, Corp, CA, USA) supplemented with 10% fetal bovine serum, penicillin (100 U/ml), streptomycin (100 μg/ml) and G418 (500 μg/ml; Sigma, Mo., USA). Cells were grown in a humidified atmosphere of 5% CO2 and 95% air at 37° C.
Sodium currents were recorded using the whole-cell configuration of the patch clamp recording technique with an Axopatch 200 amplifier (Axon Instruments, Foster City, Calif.). All voltage protocols were applied using pCLAMP 9 software (Axon, USA) and a Digidata 1322A (Axon, USA). Currents were amplified and low pass filtered (2 kHz) and sampled at 33 kHz. Borosilicate glass pipettes were pulled using a Brown-Flaming puller (model P87, Sutter Instruments Co, Novato, Calif.) and heat polished to produce electrode resistances of 0.5-1.5 MΩ when filled with the following electrode solution (in mM); CsCl 130, MgCl2 1, MgATP 5, BAPTA 10, HEPES 5 (pH adjusted to 7.4 with CsOH). Cells were plated on glass coverslips and superfused with solution containing the following composition; (in mM) NaCl 130, KCl 4, CaCl2 1, MgCl2 5, HEPES 5, and glucose 5 (pH adjusted to 7.4 with NaOH).
Compound 26 was prepared as 100 mM stock solutions in dimethyl sulfoxide (DMSO) and diluted to desired concentration in perfusion solution. The maximum DMSO concentration used was 0.1% and had no effect on current amplitude. All experiments were performed at room temperature (20-22° C.). After establishing whole-cell, a minimum series resistance compensation of 75% was applied. Sodium currents were elicited by a depolarizing step from a holding potential of −100 mV to +10 mV for a duration of 25 ms at 15 s intervals. Compound 26 was applied after a 3 min control period and continued until a steady state current amplitude was observed. All data represent percentage mean block±standard error of the mean (S.E.M.).

PC-3 cells [1] = experiment: PC-3 MTT cell viability assay; format: cell-based; settings: Homo sapiens, read-out: GI50 ± SEM (10 μM), DPH and JDA-3-135 previously determined
Source text: Following the determination that compound CDPNS inhibits the VGSCs that are present in androgen independent PC-3 cells, a 3-(4,5-Dimethylthiazol-2-yl)-2,5-diphenyltetrazolium bromide (MTT) cell viability assay was utilized to measure the ability of compound CDPNS to inhibit PC-3 cell growth via VGSC blockade. In this experiment data yielded from CDPNS was compared to previously determined DPH and JDA-3-135 antiproliferation data (Table 10).

PC-3 cells [2] = experiment: PC-3 cell growth inhibition assay (WST-8); format: cell-based; settings: Homo sapiens, WST-8, 48 hours
Experimental: The effect of compound 2 was studied on the proliferation of human androgen independent prostate cancer (PC-3) cells, using a cell viability assay with WST-8. […].
PC-3 cells were added to the wells of a 96 well plate at 7500 cells per well in 100 uL of RPMI medium with 10% serum and allowed to plate down overnight. The medium was then removed and replaced with serum free medium containing the appropriate concentration of drug. DMSO concentration was kept below 1%. At this time WST-8 cell counting reagent was added to the control (T=0) wells and allowed to incubate for 2 hours and the absorbance was read at 450 nm to determine the starting number of cells per well. The plates were incubated for 48 hours, the medium was removed and the wells were washed with 100 uL of PBS. The PBS was removed that the wells were filled with 110 uL of serum free RPMI media containing the WST-8 reagent. After two hours of incubation, the plates absorbance was read at 450 nm and normalized to the control value.

hNav1.2 = hNav1.2 (Homo sapiens, UniProt Q99250); settings: whole-cell patch clamp, hNav1.2 expressing HEK cells; read-out: hNav1.2 electrophysiology IC50; cited from earlier work
hNav1.2, sequence (Q99250 whole entry): as above

[3] = read-out: GI50 in PC3 prostate cancer cells

Compound	binding to human prostate tissue (microscopy) (human prostate tissue)	% [3H]-BTX Inhibition (40 μM) (site 2 of the VGSC) [%]	% [3H]-BTX Displacement (40 μm) (site 2 of the VGSC) [%]	[3H]-BTX-B Binding Data, Displacement % (site 2 of the VGSC; Screen at 40 μM, 2 replicates, referenced to Aconitine) [%]	% hNaV 1.2 Functional Block (10 μM) (human Nav1.2; Table 8) [%]	% hNaV 1.2 Functional Block (10 μM) (human Nav1.2; Table 8, listed as CDPNS) [%]	% hNaV 1.2 Functional Block (10 μM) (human Nav1.2; Table 9) [%]	% hNaV 1.2 Functional Block (10 μM) (human Nav1.2; Table 9, listed as CDPNS) [%]	GI50 (PC-3 cells [1]) [µM]	GI50 (PC-3 cells [2]; [3]) [µM]	GI50 (PC-3 cells [2]; read-out: PC3 GI50 (μg)) [µM]	% Nav 1.2 Functional Block (10 μm) (human Nav1.2; 10 μm, Table 13) [%]	IC50 (hNav1.2) [µM]
CN(C)c1cccc2c(S(=O)(=O)NCCCCCC3(c4cccc(Cl)c4)NC(=O)NC3=O)cccc12 (centres unmarked) [Compound 26, N-(5-(4-(3-chlorophenyl)-2,5-dioxoimidazolidin-4-yl)pentyl)-5-(dimethylamino)naphthalene-1-sulfonamide]	visible due to binding	86.4	86.4	86	58.9±4.1	58.9±4.15	58.9 ± 4.1	58.9±4.1	36	9.95 ± 0.07	9.95 ± 0.07		
CCCCCCCC1(c2cccc(Cl)c2)NC(=O)NC1=O (centres unmarked) [JDA-3-135]		69.6	69.6		30.5 ± 5.1		30.5 ± 5.1		18.6 ± 1.5	18.97 ± 0.04	18.97 ± 0.04	30.5 ± 5.1	13.9
